Measured values from patent US5977133A, “Pyridone antibiotic with improved safety profile” (priority 1998, dated 1999).

How the values were obtained:
[1] = tested on: S. aureus (CiproS); assay: In vitro MIC, agar dilution; type: cell-based; details: S. aureus (CiproS), 21 isolates
[2] = tested on: S. aureus (CiproR); assay: In vitro MIC, agar dilution; type: cell-based; details: S. aureus (CiproR), 25 isolates
[3] = tested on: S. epidermidis (CiproS); assay: In vitro MIC, agar dilution; type: cell-based; details: S. epidermidis (CiproS), 23 isolates
[4] = tested on: S. epidermidis (CiproR); assay: In vitro MIC, agar dilution; type: cell-based; details: S. epidermidis (CiproR), 11 isolates
[5] = tested on: S. pneumoniae (PenS); assay: In vitro MIC, agar dilution; type: cell-based; details: S. pneumoniae (PenS), 20 isolates
[6] = tested on: S. pneumoniae (PenR); assay: In vitro MIC, agar dilution; type: cell-based; details: S. pneumoniae (PenR), 25 isolates
[7] = tested on: S. pneumoniae (CiproR); assay: In vitro MIC, agar dilution; type: cell-based; details: S. pneumoniae (CiproR), 3 isolates
[8] = tested on: S. pyogenes; assay: In vitro MIC, agar dilution; type: cell-based; details: S. pyogenes, 21 isolates
[9] = tested on: E. faecium (CiproS); assay: In vitro MIC, agar dilution; type: cell-based; details: E. faecium (CiproS), 16 isolates
[10] = tested on: E. faecium (CiproR); assay: In vitro MIC, agar dilution; type: cell-based; details: E. faecium (CiproR), 2 isolates
[11] = tested on: E. faecalis (VanS); assay: In vitro MIC, agar dilution; type: cell-based; details: E. faecalis (VanS), 17 isolates
[12] = tested on: Enterococcus spp. (VanR); assay: In vitro MIC, agar dilution; type: cell-based; details: Enterococcus spp. (VanR), 21 isolates
[13] = tested on: E. coli; assay: In vitro MIC, agar dilution; type: cell-based; details: 25 isolates
Description: (§1) Each plate was inoculated with 1:100 (or 1:10 for slow-growing strains, primarily Micrococcus and Streptococcus) dilutions of up to 32 different microorganisms, using a Steers replicator block calibrated to deliver approximately 10^4 colony forming units (CFU's). The inoculated plates were incubated at from about 35° C. to about 37 ° C. for approximately 20-24 hours. In addition, a control plate using BHI agar containing no test compound was prepared and incubated at the beginning and at the end of each test. The quinolone antibacterial ciprofloxacin was used as a control ("Cntl").
(§2) The numbers below the microorganism species indicate the nunbers of isolates tested. […] The MIC is defined as the lowest concentration of test compound yielding no growth (a slight haze or sparsely isolated colonies at the inoculum spot) as compared to the growth control containing no test compound.

[14] = tested on: Salmonella spp.; assay: In vitro MIC, agar dilution; type: cell-based; details: 23 isolates
Description: as §1, §2

[15] = tested on: Klebsiella spp.; assay: In vitro MIC, agar dilution; type: cell-based; details: Klebsiella spp., 29 isolates
[16] = tested on: C. freundii; assay: In vitro MIC, agar dilution; type: cell-based; details: C. freundii, 20 isolates
[17] = tested on: P. mirabilis; assay: In vitro MIC, agar dilution; type: cell-based; details: P. mirabilis, 20 isolates
[18] = tested on: Providencia spp.; assay: In vitro MIC, agar dilution; type: cell-based; details: Providencia spp., 28 isolates
[19] = tested on: Enterobacter spp.; assay: In vitro MIC, agar dilution; type: cell-based; details: Enterobacter spp., 35 isolates
[20] = tested on: P. aeruginosa (CiproS); assay: In vitro MIC, agar dilution; type: cell-based; details: P. aeruginosa (CiproS), 24 isolates
[21] = tested on: P. aeruginosa (CiproR); assay: In vitro MIC, agar dilution; type: cell-based; details: P. aeruginosa (CiproR), 20 isolates
[22] = tested on: B. fragilis; assay: In vitro MIC, agar dilution; type: cell-based; details: B. fragilis, 18 isolates
[23] = tested on: C. difficile; assay: In vitro MIC, agar dilution; type: cell-based; details: C. difficile, 10 isolates
[24] = tested on: C. perfringens; assay: microbe, parasite or virus in culture; type: cell-based; details: C. perfringens, 13 isolates
[25] = tested on: H. influenzae; assay: In vitro MIC, agar dilution; type: cell-based; details: H. influenzae, 18 isolates
[26] = tested on: M. catarrhalis; assay: In vitro MIC, agar dilution; type: cell-based; details: M. catarrhalis, 18 isolates
[27] = tested on: Legionella spp.; assay: microbe, parasite or virus in culture; type: cell-based
[28] = tested on: M. pneumoniae; assay: In vitro MIC, agar dilution; type: cell-based; details: M. pneumoniae, 7 isolates
[29] = tested on: N. gonorrhoeae; assay: In vitro MIC, agar dilution; type: cell-based; details: N. gonorrhoeae, 12 isolates
[30] = tested on: H. pylori; assay: In vitro MIC, agar dilution; type: cell-based; details: H. pylori, 17 isolates
[31] = tested on: M. avium; assay: In vitro MIC, agar dilution; type: cell-based; details: M. avium, 20 isolates
[32] = mice, single intraperitoneal injection, 21 days

SMILES: Cc1c(N2CC[C@H](N)C2)c(F)cn2c(=O)c(C(=O)O)cc(C3CC3)c12.Cl [Example 3, 1-cyclopropyl-8-(3(S)-3-amino-1-pyrrolidinyl)-7-fluoro-9-methyl-4-oxo-4H-quinolizine-3-carboxylic acid hydrochloride]
- MIC Range [1]: 0.015 to 0.06 µg/mL
- MIC50 [2]: 0.25 µg/mL
- MIC90 [2]: 0.5 µg/mL
- MIC Range [2]: 0.06 to 2 µg/mL
- MIC50 [3]: 0.03 µg/mL
- MIC90 [3]: 0.06 µg/mL
- MIC Range [3]: 0.015 to 0.06 µg/mL
- MIC50 [4]: 0.25 µg/mL
- MIC90 [4]: 1 µg/mL
- MIC Range [4]: 0.25 to 2 µg/mL
- MIC50 [5]: 0.06 µg/mL
- MIC90 [5]: 0.12 µg/mL
- MIC Range [5]: 0.06 to 0.12 µg/mL
- MIC50 [6]: 0.12 µg/mL
- MIC90 [6]: 0.12 µg/mL
- MIC Range [6]: 0.06 to 0.12 µg/mL
- MIC Range [7]: 0.12 to 0.25 µg/mL
- MIC50 [8]: 0.03 µg/mL
- MIC90 [8]: 0.06 µg/mL
- MIC Range [8]: 0.015 to 0.06 µg/mL
- MIC50 [9]: 0.5 µg/mL
- MIC90 [9]: 1 µg/mL
- MIC Range [9]: 0.25 to 1 µg/mL
- MIC Range [10]: 1 to 4 µg/mL
- MIC50 [11]: 0.25 µg/mL
- MIC90 [11]: 0.25 µg/mL
- MIC Range [11]: 0.12 to 0.25 µg/mL
- MIC50 [12]: 0.5 µg/mL
- MIC90 [12]: 1 µg/mL
- MIC Range [12]: 0.12 to 4 µg/mL
- MIC50 [13]: 0.03 µg/mL
- MIC90 [13]: 0.06 µg/mL
- MIC50 [14]: 0.06 µg/mL
- MIC90 [14]: 0.06 µg/mL
- MIC50 [15]: 0.12 µg/mL
- MIC90 [15]: 0.12 µg/mL
- MIC Range [15]: 0.015 to 0.5 µg/mL
- MIC50 [16]: 0.06 µg/mL
- MIC90 [16]: 0.25 µg/mL
- MIC Range [16]: 0.015 to 0.25 µg/mL
- MIC50 [17]: 0.12 µg/mL
- MIC90 [17]: 0.25 µg/mL
- MIC Range [17]: 0.06 to 0.25 µg/mL
- MIC50 [18]: 0.12 µg/mL
- MIC90 [18]: 0.25 µg/mL
- MIC Range [18]: 0.03 to 1 µg/mL
- MIC50 [19]: 0.06 µg/mL
- MIC90 [19]: 0.12 µg/mL
- MIC Range [19]: 0.03 to 0.5 µg/mL
- MIC50 [20]: 0.25 µg/mL
- MIC90 [20]: 1 µg/mL
- MIC Range [20]: 0.12 to 1 µg/mL
- MIC50 [21]: 16 µg/mL
- MIC90 [21]: 32 µg/mL
- MIC Range [21]: 16 to 64 µg/mL
- MIC50 [22]: 0.25 µg/mL
- MIC90 [22]: 0.5 µg/mL
- MIC Range [22]: 0.12 to 0.5 µg/mL
- MIC50 [23]: 0.25 µg/mL
- MIC90 [23]: 0.5 µg/mL
- MIC Range [23]: 0.25 to 0.5 µg/mL
- MIC50 [24]: 0.12 µg/mL
- MIC90 [24]: 0.25 µg/mL
- MIC Range [24]: 0.06 to 0.25 µg/mL
- MIC50 [25]: 0.015 µg/mL
- MIC90 [25]: 0.03 µg/mL
- MIC Range [25]: 0.008 to 0.06 µg/mL
- MIC50 [26]: 0.06 µg/mL
- MIC90 [26]: 0.06 µg/mL
- MIC Range [26]: 0.015 to 0.06 µg/mL
- MIC50 [27]: 0.5 µg/mL
- MIC90 [27]: 1 µg/mL
- MIC Range [27]: 0.5 to 1 µg/mL
- MIC Range [28]: 0.06 to 0.12 µg/mL
- MIC50 [29]: 0.008 µg/mL
- MIC90 [29]: 0.03 µg/mL
- MIC Range [29]: 0.008 to 0.06 µg/mL
- MIC50 [30]: 0.12 µg/mL
- MIC90 [30]: 0.25 µg/mL
- MIC Range [30]: 0.06 to 0.5 µg/mL
- MIC50 [31]: 4 µg/mL
- MIC90 [31]: 16 µg/mL
- MIC Range [31]: 1 to 32 µg/mL
- LD50 [32]: 105.0 mg/kg
